# Test results from patent US7897640B2 (priority 2003, dated 2011).
# Read-outs that look alike come from different tables or passages of the source.
# Key:
# [1] = test system: AZT-resistant strain HIV-1 018c; conditions: PBMC, AZT-resistant HIV-1 018c
# HIV-1 IIIB [2] = assay: HIV-1 P24 antigen inhibition in MT-4 culture
# Method: MT-4 cell suspension was counted, then 100 μl of suspension (2×10^5 cells/ml) was seeded into 96-well cell culture plate, 50 μl liquor of 2× diluted medicament or 4-5× diluted positive medicament AZT (8 concentrations) was added, respectively, and 50 μl virus suspension with proper titer was add concurrently. Each dilution was repeated in 3 wells and cell control group and virus control group were established. They were incubated at 37° C., 5% CO2 saturated humidity incubator and the cytopathy was observed everyday. On the fourth day after administration (96 hours), the supernatants were sucked out and stored at −20° C. for measuring HIV-1-P24 antigen titer. Accordingly, the inhibition effect of medicament could be calculated, and the cells were dyed with MTT to measure the cytotoxicity.
# The medicated cell supernatants infected with MT-4 were diluted after being thawed. HIV-1 P24 titer was measured according to the operation procedure described in HIV-1 P24 antigen kit.
# [formula] 2.2.2 Reed & Muench Method for Calculating CC50 and EC50 of Medicament in Cell Culture
# [formula] 2.2.3. Calculation Method of Selection Index (SI) of HIV-1 P24 Antigen in Cell Culture SI=CC50/EC50 3.
# [3] = test system: AZT-resistant strain HIV-1 018c; assay: microbe, parasite or virus in culture; conditions: Human immunodeficiency virus 1, PBMC, 96 h, read-out: Median effective concentration (EC50), HIV-1 P24 antigen
# [4] = test system: AZT-sensitive strain HIV-1 018a; assay: HIV-1 P24 antigen inhibition in PBMC, AZT-sensitive strain
# [5] = test system: AZT-sensitive strain HIV-1 018a
# [6] = cytotoxicity by MTT in HIV-infected PBMC culture; conditions: human, Median cytotoxicity concentration (CC50)
# Method: (§1) 10 μl MTT dye (5 mg/ml) was added to each well, and then incubated at 37° C., 5% CO2 saturated humidity incubator for 4 hours. 100 μl 50% DMF-17% Triton X-100 destainer was added to each well and the mixtures were kept at 37° C. overnight. Then OD570nm values were measured at 570 nm with a luminometer to calculate the median cytotoxicity concentration of medicament (CC50).
# (§2) The fresh normal human venous blood was taken and PBMC was separated using FiColl separation solution. The 1.5×10^5 cells/ml suspension prepared with the culture fluid containing PHA was seeded into the culture bottle and incubated in the incubator (37° C., 5% CO2) for 72 hours. The cells were collected with cell scrapers then were infected with the 10^−2 viral liquid of AZT-sensitive (018a) or AZT-resistant (018c) viral strain. After absorption for 2 hours, the non-absorbed viruses were washed with serum-free 1640 culture medium. The infected cells were prepared into 1×10^6 cells/ml with the culture fluid, and then were seeded into the 96-well culture board in 100 μl/well. At the same time, 100 μl liquor of 2× diluted AKJ-2 or 5× diluted positive control medicament AZT with different concentrations was added. The cell control group and virus control group were established. Four days (96 hours) after incubating under 37° C., 5% CO2, the supernatants were sucked out and stored at −20° C. to measure HIV-1-P24 antigen titer and calculate the inhibition effect of the medicament. The cells were dyed with MTT to measure the cytotoxicity.
# HIV-1 IIIB [7] = assay: HIV-1 P24 antigen inhibition in chronically infected H9 cells
# Method: HIV-1 P24 antigen titer was measured according to the operation procedures stated in HIV-1 P24 antigen kit.
# 100 μl (2×10^5 cells/ml) of H9 cells suspension was seeded into 96-well cell culture plate. Then, 100 μl liquor of 2× diluted medicament or 4-5× diluted positive AZT (8 concentrations) was added. Each dilution was repeated in three wells. The cell control group was established. The cells were incubated in the incubator (37° C., 5% CO2, saturated humidity) and the cytopathy was observed everyday. Four days (96 hours) after administration, the supernatants were sucked out and stored at −20° C. to measure HIV-1-P24 antigen titer. The inhibition effect of the medicament was determined. The cells were dyed with MTT to measure the cytotoxicity.
# 2.2.2 Reed & Muench Method for Calculating CC50 and EC50 of Medicament in Cell Culture
# Calculation Method of Selection Index (SI) of HIV-1 P24 Antigen in Cell Culture SI=CC50/EC50 3.
# mycoplasma pneumoniae = assay: bacteriostatic effect on mycoplasma pneumoniae; type: cell-based
# human T lymphocytes MT-4 = assay: cytotoxicity by MTT in MT-4 culture; conditions: MT-4 culture with HIV-1 IIIB, 96 hours
# [8] = test system: human T lymphocytes H9 chronically infected with HIV-1 IIIB; assay: cytotoxicity by MTT in H9 cells chronically infected with HIV-1 IIIB; conditions: H9 cell chronically infected with HIV-1 IIIB, 96 hours
# solubility = type: physicochemical
# [9] = test system: human peripheral blood mononuclear cell (PBMC); assay: cytotoxicity by MTT in HIV-infected PBMC culture; conditions: 96 hours
# Method: as §1, §2
# [10] = test system: aspergillus fumigatus, cryptococcus and red trichophyton; assay: in vitro antifungal test, aspergillus fumigatus, cryptococcus and red trichophyton; type: cell-based
# [11] = test system: Staphylococcus epidermidis; assay: comparative MIC experiment, Staphylococcus epidermidis; type: cell-based
# Bacteroid = assay: comparative MIC experiment, Bacteroid; type: cell-based
# Serratia marcescens = assay: comparative MIC experiment, Serratia marcescens; type: cell-based
# candida and cryptococcus = assay: in vitro antifungal test, candida and cryptococcus; type: cell-based
# Candida albicans = assay: comparative MIC experiment, Candida albicans; type: cell-based
# Pseudallescheria boydii = assay: in vitro antifungal test, Pseudallescheria boydii; type: cell-based
# dermatophyte = assay: in vitro antifungal test, dermatophyte; type: cell-based
# [12] = PBMC infected with AZT-resistant HIV-1 018c
# [13] = PBMC infected with AZT-sensitive HIV-1 018a
structure (smiles),measurement,setting,value
"Cc1cn([C@H]2C[C@H](N=[N+]=[N-])[C@@H](CO)O2)c(=O)[nH]c1=O [AZT, Zidovudine, reference compound]",Selection index (CC50/EC50),[1],1895.40 ± 479.53
same,EC50,"HIV-1 IIIB [2]; Human immunodeficiency virus 1, IIIB, 96 h, read-out: Median effective concentration (EC50), HIV-1 P24 antigen",0.09 ± 0.003 µg/mL
same,Selection index (CC50/EC50),"HIV-1 IIIB [2]; MT-4, HIV-1 IIIB",1808.33 ± 723.07
same,EC50,[3],0.05 ± 0.01 µg/mL
same,EC50,"[4]; Human immunodeficiency virus 1, PBMC, 96 h, read-out: Median effective concentration (EC50), HIV-1 P24 antigen",< 0.0064 µg/mL
same,Selection index (CC50/EC50),[5],10275.78 ± 1530.22
same,CC50 at 96 h,[6]; [12],88 ± 15.5 µg/mL
same,CC50 at 96 h,[6]; [13],77.2 ± 20.9 µg/mL
same,Selection index (CC50/EC50),HIV-1 IIIB [7]; H9 cell chronically infected with HIV-1 IIIB,83.65 ± 37.96
same,EC50,"HIV-1 IIIB [7]; Human immunodeficiency virus 1, IIIB, H9, 96 h, read-out: Median effective concentration (EC50), HIV-1 P24 antigen",1.08 ± 0.24 µg/mL
"CC[C@H]1OC(=O)[C@H](C)[C@@H](O[C@H]2C[C@@](C)(OC)[C@@H](O)[C@H](C)O2)[C@H](C)[C@@H](O[C@@H]2O[C@H](C)C[C@H](N(C)C)[C@H]2O)[C@](C)(O)C[C@@H](C)C(=O)[C@H](C)[C@@H](O)[C@]1(C)O [erythrocin, reference compound]",concentration of equivalent inhibitory effect,mycoplasma pneumoniae; comparator,0.1925 µg/mL
CC(=O)O[C@H](CC=C(C)C)C1=CC(=O)c2c(O)ccc(O)c2C1=O [acetylshikonin],"Median effective concentration (EC50), HIV-1 P24 antigen",[1]; 96 hours,>1.25 ± 0 µg/mL
same,Median cytotoxicity concentration (CC50),human T lymphocytes MT-4,0.49 ± 0.06 µg/mL
same,Median cytotoxicity concentration (CC50),[8],1.77 ± 0.13 µg/mL
same,Selection index (CC50/EC50),"HIV-1 IIIB [2]; MT-4, HIV-1 IIIB",2.45 ± 0.51
same,"Median effective concentration (EC50), HIV-1 P24 antigen","HIV-1 IIIB [2]; MT-4, HIV-1 IIIB, 96 hours",0.20 ± 0.03 µg/mL
same,solubility in DMSO,solubility; DMSO,soluble
same,solubility in water,solubility; water,insoluble
same,Selection index (CC50/EC50),"[4]; PBMC, AZT-sensitive HIV-1 018a",6.50 ± 0.08
same,"Median effective concentration (EC50), HIV-1 P24 antigen","[4]; PBMC, AZT-sensitive HIV-1 018a, 96 hours",1.18 ± 0.03 µg/mL
same,Median cytotoxicity concentration (CC50),[9]; [12],5.83 ± 0.38 µg/mL
same,Median cytotoxicity concentration (CC50),[9]; [13],7.69 ± 0.19 µg/mL
same,"Median effective concentration (EC50), HIV-1 P24 antigen","HIV-1 IIIB [7]; H9 cell chronically infected with HIV-1 IIIB, 96 hours",>0.25 ± 0 µg/mL
same,inhibition effect on HIV-1 IIIB chronically-infected H9 cells,HIV-1 IIIB [7]; two lots of tests,no inhibition effect
"CC(C)=CCC(OC(=O)C=C(C)C)C1=CC(=O)c2c(O)ccc(O)c2C1=O (stereo not drawn) [β,β-dimethylacrylshikonin]",MIC,[10],3.0625 to 250 µg/mL
same,MIC,[11],0.391 µg/mL
same,MIC,Bacteroid,0.391 µg/mL
same,MIC,Serratia marcescens,0.781 µg/mL
same,MIC,candida and cryptococcus,2.08 to 33.3 µg/mL
same,MIC90,candida and cryptococcus,33.3 µg/mL
same,MIC,mycoplasma pneumoniae,2 µg/mL
same,MIC,Candida albicans,3.9062 µg/mL
same,MIC,Pseudallescheria boydii,4.16-8.32 μg/mi
same,MIC,dermatophyte,4.16 to 8.32 µg/mL
same,MIC90,dermatophyte,4.16 µg/mL
